Test results reported in US20210009959A1, “METHODS FOR ENHANCING OSTEOGENIC DIFFERENTIATION USING VITAMIN D” (priority 2019, published 2021).

Legend:
Assay type in all cases: cell-based
[1] = system: human adipose stem cells (hASCs); experiment: ALP activity of hASCs in 3D PLGA/β-TCP scaffold, dynamic and static culture
Description: In one embodiment, dynamic culture of pre-treated hASCs with calcitriol, using the modified perfusion bioreactor comprises the following steps. In one embodiment, the scaffolds are 3D PLGA/β-TCP. The modified perfusion bioreactor […] comprises five scaffolds, loaded with a total of 70 ml of culture medium as shown in FIG. 2. At another step, 30 ml of the culture medium is replaced twice a week for a total period of two weeks. At another step, the culture medium in the modified perfusion bioreactor 200 is distributed to the five scaffolds with the flow rate of about 5 ml/min using the peristaltic pump 202.
In one embodiment, the method of static culture of pre-treated hASCs is continued in a flask bioreactor with the same volume of culture medium utilized in the dynamic culture. Further, the methods of culturing the hASCs are divided into different groups. In one embodiment, the methods of culturing of hASCs are divided into four groups such as, static culture of non-treated hASCs, static culture of pre-treated hASCs with calcitriol, dynamic culture of non-treated hASCs and dynamic culture of pre-treated hASCs with calcitriol.
Referring to FIG. 10, the effects of dynamic pre-treated/non-treated hASCs versus static pre-treated/non-treated hASCs on ALP activity of hASCs are disclosed, where the hASCs are seeded in 3D PLGA/β-TCP scaffold. In one embodiment, the hASCs are pre-treated with or without 10 nM calcitriol for 30 minutes and cultured in the modified perfusion bioreactor 200 (dynamic culture) and flask bioreactor (static culture). The ALP activity of hASCs after 7 days perfusion culture of pre-treated hASCs is increased by 9.2-fold compared to static culture of pre-treated hASCs, and the ALP activity of non-treated hASCs is increased by 10.3-fold compared to static culture of non-treated hASCs.
The 14 days of perfusion culture of non-treated hASCs increases ALP activity by 1.4-fold relative to static counterpart, and perfusion culture of pre-treated hASCs increases ALP activity by 2.2-fold relative to static culture of pre-treated hASCs. Moreover, calcitriol pre-treatment increases ALP activity of hASCs by 2.8-fold at day 7 and 1.3-fold at day 14 compared to non-treated hASCs in static condition. On the whole, the highest ALP activity is observed at day 7, which belongs to perfusion culture of pre-treated hASCs with calcitriol.

[2] = system: human adipose stem cells (hASCs); experiment: ALP staining using NBT/BCIP in hASCs; details: 30 min treatment; 2 and 3 weeks of culture; compared to continuous treatment
Excerpt: Referring to FIG. 6, the effect of calcitriol treatment on ALP activity in hASCs by ALP staining using nitro blue tetrazolium chloride/5-bromo-4-chloro-3-indolyl phosphate (NBT/BCIP) is disclosed. […] The increase in ALP activity is confirmed by ALP staining after 14 days of culture. […] The cell distribution is confirmed by 4′,6-diamidino-2-phenylindole (DAPI) staining.

[3] = system: human adipose stem cells (hASCs); experiment: hASC proliferation (cell number) on BCP scaffold, static culture; details: vs non-treated controls
Description: In one embodiment, a method of static culture of hASCs by pre-treatment with vitamin D3 (calcitriol) and attachment of hASCs to the scaffold used in one-step surgical procedure comprises the following steps. At one step, isolating hASCs as explained in FIG. 1. In an embodiment, the hASCs from three donors at passage 3 are used for further processing. As an optional step, the obtained hASCs are either or not incubated for a period of about 30 mins with low concentrated calcitriol of about 10 nM at room temperature. At next step, the calcitriol treated hASCs are washed twice with Phosphate Buffered Saline (PBS) to remove calcitriol. Further, the washed hASCs are centrifuged and resuspended in Dulbecco's Minimum Essential Medium (DMEM) without any supplements. At another step, the resuspended cells are seeded on the scaffold and allowed to attach to the scaffolds for a period of about 30 minutes. At next step, the scaffolds with attached cells are transferred to 12-well plates with Costar® Transwell® containers (Corning Life Sciences, Lowell, Mass., USA) containing expansion medium (DMEM) supplemented with 10% Fetal Clone I (FCI), antibiotics (1% penicillin/streptomycin/fungizone (PSF)), 50 μM ascorbic acid (Merck, Darmstadt, Germany), and 10 mM β-glycerol phosphate (Merck, Darmstadt, Germany) (PLGA/β-TCP). At next step, the hASCs seeded scaffolds are incubated at 5% CO2 in a humidified incubator at predefined temperature of about 37° C. for a period of about 3 weeks. The effect of 30 minutes pre-treatment with calcitriol on hASC proliferation is exemplarily illustrated in FIG. 4C. […] The 30 minutes pre-treatment with calcitriol increases the cell number at day 14 by 3.5-fold, and at day 21 by 2.6-fold. The continuous treatment of hASCs with calcitriol for 3 weeks increases the cell number only at day 14 by 1.7-fold, but not at day 21 compared to non-treated controls as shown in FIG. 4C. The results of hASC proliferation are expressed as CFU (in %) versus time (in days) and represent means±standard errors of the means of the colon forming unit counts (n=3), where p<0.0001.

C=C1/C(=C\C=C2/CCC[C@]3(C)[C@@H]([C@H](C)CCCC(C)(C)O)CC[C@@H]23)C[C@@H](O)C[C@@H]1O [calcitriol, 1,25-dihydroxyvitamin D3]
ALP activity, increase ([1]; 7 days, perfusion culture of pre-treated hASCs vs static culture of pre-treated hASCs): 9.2 fold
ALP activity, increase ([1]; 7 days, perfusion culture of pre-treated vs perfusion culture of non-treated hASCs): 2.6 fold
ALP activity, increase ([1]; 14 days, perfusion culture of pre-treated vs static culture of pre-treated hASCs): 2.2 fold
ALP activity, increase ([1]; static condition, day 7, pre-treated vs non-treated hASCs): 2.8 fold
ALP activity, increase ([1]; static condition, day 14, pre-treated vs non-treated hASCs): 1.3 fold
ALP activity by ALP staining (NBT/BCIP) [2]: notably increases
cell number, increase ([3]; 30 min pre-treatment, day 14): 3.5 fold
cell number, increase ([3]; 30 min pre-treatment, day 21): 2.6 fold
cell number, increase ([3]; continuous treatment for 3 weeks, day 14): 1.7 fold
cell number, increase ([3]; continuous treatment for 3 weeks, day 21): not at day 21
